Where two headings read alike, the source gives them in different places.
Legend:
[1] = additive used in the salt screen, cited from earlier work
[2] = pKa of basic sites / additives; assay type: physicochemical; conditions: two basic sites for salt formation
Text: Fifty-three counterions and stoichiometric combinations were selected. Table 1 provides a summary of the additives, pKa values, method of dosing and equivalents dosed for each additive.

| pKa [2] | pKa ([2]; read-out: pKa) | Compound | pKa ([1]; first pKa value) | pKa ([1]; second pKa value) |
| --- | --- | --- | --- | --- |
| – | – | O=C(O)C(O)c1ccccc1 (racemic) [DL-Mandelic acid] | 3.4 | – |
| – | – | CC1(C)C2CCC1(CS(=O)(=O)O)C(=O)C2 (stereo not shown) [Camphor-10-sulfonic acid] | −2.2 | – |
| – | – | CC1(C(=O)O)CCC(C(=O)O)C1(C)C (stereo not shown) [Camphoric acid] | 4.7 | 5.8 |
| 6.4 | 9.3 | Cc1cnc(Nc2ccc(OCCN3CCCC3)cc2)nc1Nc1cccc(S(=O)(=O)NC(C)(C)C)c1 [Compound 1, N-tert-butyl-3-[(5-methyl-2-{[4-(2-pyrrolidin-1-ylethoxy)phenyl]amino}pyrimidin-4-yl)amino]benzenesulfonamide] | – | – |
| – | – | O=C(O)[C@@H](O)c1ccccc1 [L-Mandelic acid] | 3.4 | – |
